From ChEMBL document CHEMBL5303573, “Mapping human microbiome drug metabolism by gut bacteria and their genes” (Nature, 2019) come the findings set out here.

One data set in a line: The drug is tested on Blautia hansenii strain: DSM20583 for biotransformation. The drug concentrations were measured before and after a 12-h incubation by liquid-chromatography-coupled mass spectrometry (LC–MS). To be noted: 2 µM.
As to `CC#C[C@]1(O)CC[C@H]2[C@@H]3CCC4=CC(=O)CCC4=C3[C@@H](c3ccc(N(C)C)cc3)C[C@@]21C` [MIFEPRISTONE], the “Bacterial Biotransformation” value was “Compound metabolized”.
Consider `CC(Oc1c(Cl)cccc1Cl)C1=NCCN1` (stereo not drawn) [LOFEXIDINE], for which the “Bacterial Biotransformation” value is listed as “Compound metabolized”.

For the next data set the following is noted: bacteroides thetaiotaomicron, 12 h, 2 µM.
Description: The drug is tested on Bacteroides thetaiotaomicron strain: 7330 for biotransformation. The drug concentrations were measured before and after a 12-h incubation by liquid-chromatography-coupled mass spectrometry (LC–MS)
For the compound `CC#C[C@]1(O)CC[C@H]2[C@@H]3CCC4=CC(=O)CCC4=C3[C@@H](c3ccc(N(C)C)cc3)C[C@@]21C` [MIFEPRISTONE], the “Bacterial Biotransformation” value is listed as “Compound NOT metabolized”.
Turning to `CC(Oc1c(Cl)cccc1Cl)C1=NCCN1` (stereo not drawn) [LOFEXIDINE], the “Bacterial Biotransformation” value is listed as “Compound metabolized”.

A further data set can be described thus: The drug is tested on Dorea formicigenerans strain: ATCC27755 for biotransformation. The drug concentrations were measured before and after a 12-h incubation by liquid-chromatography-coupled mass spectrometry (LC–MS). To be noted: 2 µM.
With `CC#C[C@]1(O)CC[C@H]2[C@@H]3CCC4=CC(=O)CCC4=C3[C@@H](c3ccc(N(C)C)cc3)C[C@@]21C` [MIFEPRISTONE], the “Bacterial Biotransformation” value is reported as “Compound NOT metabolized”.
For `CC(Oc1c(Cl)cccc1Cl)C1=NCCN1` (stereo not drawn) [LOFEXIDINE], the “Bacterial Biotransformation” value is reported as “Compound metabolized”.

The nature of a further data set: The drug is tested on Bifidobacterium breve strain: DSM20213 for biotransformation. The drug concentrations were measured before and after a 12-h incubation by liquid-chromatography-coupled mass spectrometry (LC–MS). To be noted: 2 µM.
Consider `CC#C[C@]1(O)CC[C@H]2[C@@H]3CCC4=CC(=O)CCC4=C3[C@@H](c3ccc(N(C)C)cc3)C[C@@]21C` [MIFEPRISTONE], for which the “Bacterial Biotransformation” value is recorded as “Compound metabolized”.
Same read-out and setting: with `CC(Oc1c(Cl)cccc1Cl)C1=NCCN1` (stereo not drawn) [LOFEXIDINE] the entry was “Compound metabolized”.

Another data set can be described thus: The drug is tested on Subdoligranulum variabile strain: DSM15176 for biotransformation. The drug concentrations were measured before and after a 12-h incubation by liquid-chromatography-coupled mass spectrometry (LC–MS). To be noted: 2 µM.
Regarding `CC#C[C@]1(O)CC[C@H]2[C@@H]3CCC4=CC(=O)CCC4=C3[C@@H](c3ccc(N(C)C)cc3)C[C@@]21C` [MIFEPRISTONE], the “Bacterial Biotransformation” value is given as “Compound NOT metabolized”.
In the case of `CC(Oc1c(Cl)cccc1Cl)C1=NCCN1` (stereo not drawn) [LOFEXIDINE], the “Bacterial Biotransformation” value is “Compound metabolized”.

The nature of another data set: The drug is tested on Escherichia coli strain: BW25113 for biotransformation. The drug concentrations were measured before and after a 12-h incubation by liquid-chromatography-coupled mass spectrometry (LC–MS). To be noted: 2 µM.
`CC#C[C@]1(O)CC[C@H]2[C@@H]3CCC4=CC(=O)CCC4=C3[C@@H](c3ccc(N(C)C)cc3)C[C@@]21C` [MIFEPRISTONE]: the “Bacterial Biotransformation” value was “Compound NOT metabolized”.
Same read-out and setting: the value for `CC(Oc1c(Cl)cccc1Cl)C1=NCCN1` (stereo not drawn) [LOFEXIDINE] was “Compound metabolized”.

The conditions of a further data set: roseburia intestinalis, 12 h, 2 µM.
Description: The drug is tested on Roseburia intestinalis strain: L1-82 for biotransformation. The drug concentrations were measured before and after a 12-h incubation by liquid-chromatography-coupled mass spectrometry (LC–MS)
Regarding `CC#C[C@]1(O)CC[C@H]2[C@@H]3CCC4=CC(=O)CCC4=C3[C@@H](c3ccc(N(C)C)cc3)C[C@@]21C` [MIFEPRISTONE], the “Bacterial Biotransformation” value is reported as “Compound NOT metabolized”.
Regarding `CC(Oc1c(Cl)cccc1Cl)C1=NCCN1` (stereo not drawn) [LOFEXIDINE], the “Bacterial Biotransformation” value was “Compound metabolized”.

The conditions of another data set: victivallis vadensis, 12 h, 2 µM.
Description: The drug is tested on Victivallis vadensis strain: ATCC BAA-548 for biotransformation. The drug concentrations were measured before and after a 12-h incubation by liquid-chromatography-coupled mass spectrometry (LC–MS)
`CC#C[C@]1(O)CC[C@H]2[C@@H]3CCC4=CC(=O)CCC4=C3[C@@H](c3ccc(N(C)C)cc3)C[C@@]21C` [MIFEPRISTONE]: the “Bacterial Biotransformation” value is given as “Compound NOT metabolized”.
`CC(Oc1c(Cl)cccc1Cl)C1=NCCN1` (stereo not drawn) [LOFEXIDINE]: the “Bacterial Biotransformation” value is recorded as “Compound metabolized”.

Another data set can be described thus: The drug is tested on Bacteroides sp. WH2 strain: WH2 for biotransformation. The drug concentrations were measured before and after a 12-h incubation by liquid-chromatography-coupled mass spectrometry (LC–MS). To be noted: bacteroides sp. wh2, 12 h, 2 µM.
Regarding `CC#C[C@]1(O)CC[C@H]2[C@@H]3CCC4=CC(=O)CCC4=C3[C@@H](c3ccc(N(C)C)cc3)C[C@@]21C` [MIFEPRISTONE], the “Bacterial Biotransformation” value was “Compound NOT metabolized”.
`CC(Oc1c(Cl)cccc1Cl)C1=NCCN1` (stereo not drawn) [LOFEXIDINE]: the “Bacterial Biotransformation” value is “Compound metabolized”.

Another data set can be described thus: The drug is tested on Blautia luti strain: DSM14534 for biotransformation. The drug concentrations were measured before and after a 12-h incubation by liquid-chromatography-coupled mass spectrometry (LC–MS). The following applies: 2 µM. The format is ADME. Details: dose 2 uM, timepoint 0 vs 12 hours.
Take `CC#C[C@]1(O)CC[C@H]2[C@@H]3CCC4=CC(=O)CCC4=C3[C@@H](c3ccc(N(C)C)cc3)C[C@@]21C` [MIFEPRISTONE]: the “Bacterial Biotransformation” value is given as “Compound NOT metabolized”.
Regarding `CC(Oc1c(Cl)cccc1Cl)C1=NCCN1` (stereo not drawn) [LOFEXIDINE], the “Bacterial Biotransformation” value is “Compound metabolized”.

A short description of a further data set: The drug is tested on Collinsella intestinalis strain: DSM13280 for biotransformation. The drug concentrations were measured before and after a 12-h incubation by liquid-chromatography-coupled mass spectrometry (LC–MS). The following applies: 2 µM.
Consider `CC#C[C@]1(O)CC[C@H]2[C@@H]3CCC4=CC(=O)CCC4=C3[C@@H](c3ccc(N(C)C)cc3)C[C@@]21C` [MIFEPRISTONE], for which the “Bacterial Biotransformation” value is recorded as “Compound NOT metabolized”.
With `CC(Oc1c(Cl)cccc1Cl)C1=NCCN1` (stereo not drawn) [LOFEXIDINE], the “Bacterial Biotransformation” value was “Compound NOT metabolized”.

The next data set in a line: The drug is tested on Clostridium asparagiforme strain: DSM15981 for biotransformation. The drug concentrations were measured before and after a 12-h incubation by liquid-chromatography-coupled mass spectrometry (LC–MS). The format is ADME. Details: dose 2 uM, timepoint 0 vs 12 hours. The following applies: enterocloster asparagiformis, 2 µM.
`CC#C[C@]1(O)CC[C@H]2[C@@H]3CCC4=CC(=O)CCC4=C3[C@@H](c3ccc(N(C)C)cc3)C[C@@]21C` [MIFEPRISTONE]: the “Bacterial Biotransformation” value is reported as “Compound NOT metabolized”.
In the case of `CC(Oc1c(Cl)cccc1Cl)C1=NCCN1` (stereo not drawn) [LOFEXIDINE], the “Bacterial Biotransformation” value is listed as “Compound metabolized”.

Another data set is described as follows: The drug is tested on Eubacterium ventriosum strain: ATCC27560 for biotransformation. The drug concentrations were measured before and after a 12-h incubation by liquid-chromatography-coupled mass spectrometry (LC–MS). The format is ADME. Details: dose 2 uM, timepoint 0 vs 12 hours. To be noted: 2 µM.
As to `CC#C[C@]1(O)CC[C@H]2[C@@H]3CCC4=CC(=O)CCC4=C3[C@@H](c3ccc(N(C)C)cc3)C[C@@]21C` [MIFEPRISTONE], the “Bacterial Biotransformation” value is “Compound NOT metabolized”.
`CC(Oc1c(Cl)cccc1Cl)C1=NCCN1` (stereo not drawn) [LOFEXIDINE]: the “Bacterial Biotransformation” value is on record as “Compound NOT metabolized”.

For another data set the following is noted: segatella copri, 12 h, 2 µM.
Description: The drug is tested on Prevotella copri strain: DSM18205 for biotransformation. The drug concentrations were measured before and after a 12-h incubation by liquid-chromatography-coupled mass spectrometry (LC–MS)
As to `CC#C[C@]1(O)CC[C@H]2[C@@H]3CCC4=CC(=O)CCC4=C3[C@@H](c3ccc(N(C)C)cc3)C[C@@]21C` [MIFEPRISTONE], the “Bacterial Biotransformation” value was “Compound NOT metabolized”.
The same measure, in the same setting: the value for `CC(Oc1c(Cl)cccc1Cl)C1=NCCN1` (stereo not drawn) [LOFEXIDINE] was “Compound metabolized”.

Another data set is described as follows: The drug is tested on Bacteroides fragilis strain: HMW610 for biotransformation. The drug concentrations were measured before and after a 12-h incubation by liquid-chromatography-coupled mass spectrometry (LC–MS). The following applies: 2 µM.
For `CC#C[C@]1(O)CC[C@H]2[C@@H]3CCC4=CC(=O)CCC4=C3[C@@H](c3ccc(N(C)C)cc3)C[C@@]21C` [MIFEPRISTONE], the “Bacterial Biotransformation” value was “Compound metabolized”.

The conditions of a further data set: bacteroides eggerthii, 12 h, 2 µM.
Description: The drug is tested on Bacteroides eggerthii strain: DSM20697 for biotransformation. The drug concentrations were measured before and after a 12-h incubation by liquid-chromatography-coupled mass spectrometry (LC–MS)
Take `CC(Oc1c(Cl)cccc1Cl)C1=NCCN1` (stereo not drawn) [LOFEXIDINE]: the “Bacterial Biotransformation” value is “Compound metabolized”.

For a further data set the following is noted: akkermansia muciniphila, 12 h, 2 µM.
Description: The drug is tested on Akkermansia muciniphila strain: ATCC BAA-835 for biotransformation. The drug concentrations were measured before and after a 12-h incubation by liquid-chromatography-coupled mass spectrometry (LC–MS)
With `CC#C[C@]1(O)CC[C@H]2[C@@H]3CCC4=CC(=O)CCC4=C3[C@@H](c3ccc(N(C)C)cc3)C[C@@]21C` [MIFEPRISTONE], the “Bacterial Biotransformation” value was “Compound NOT metabolized”.
Take `CC(Oc1c(Cl)cccc1Cl)C1=NCCN1` (stereo not drawn) [LOFEXIDINE]: the “Bacterial Biotransformation” value is “Compound metabolized”.

For another data set the following is noted: bacteroides thetaiotaomicron, 12 h, 2 µM. The source holds these as a separate data set.
Description: The drug is tested on Bacteroides thetaiotaomicron strain: VPI-5482 for biotransformation. The drug concentrations were measured before and after a 12-h incubation by liquid-chromatography-coupled mass spectrometry (LC–MS)
In the case of `CC#C[C@]1(O)CC[C@H]2[C@@H]3CCC4=CC(=O)CCC4=C3[C@@H](c3ccc(N(C)C)cc3)C[C@@]21C` [MIFEPRISTONE], the “Bacterial Biotransformation” value is on record as “Compound NOT metabolized”.
As for `CC(Oc1c(Cl)cccc1Cl)C1=NCCN1` (stereo not drawn) [LOFEXIDINE], the “Bacterial Biotransformation” value is “Compound metabolized”.

A further data set in a line: The drug is tested on Bacteroides vulgatus strain: ATCC8482 for biotransformation. The drug concentrations were measured before and after a 12-h incubation by liquid-chromatography-coupled mass spectrometry (LC–MS). The following applies: phocaeicola vulgatus, 2 µM.
On to `CC#C[C@]1(O)CC[C@H]2[C@@H]3CCC4=CC(=O)CCC4=C3[C@@H](c3ccc(N(C)C)cc3)C[C@@]21C` [MIFEPRISTONE], for which the “Bacterial Biotransformation” value is listed as “Compound metabolized”.
On the same count and under the same terms, the value for `CC(Oc1c(Cl)cccc1Cl)C1=NCCN1` (stereo not drawn) [LOFEXIDINE] was “Compound metabolized”.

A short description of the next data set: The drug is tested on Bacteroides cellulosilyticus strain: DSM14838 for biotransformation. The drug concentrations were measured before and after a 12-h incubation by liquid-chromatography-coupled mass spectrometry (LC–MS). The following applies: 2 µM.
Turning to `CC#C[C@]1(O)CC[C@H]2[C@@H]3CCC4=CC(=O)CCC4=C3[C@@H](c3ccc(N(C)C)cc3)C[C@@]21C` [MIFEPRISTONE], the “Bacterial Biotransformation” value is given as “Compound NOT metabolized”.
As for `CC(Oc1c(Cl)cccc1Cl)C1=NCCN1` (stereo not drawn) [LOFEXIDINE], the “Bacterial Biotransformation” value is recorded as “Compound metabolized”.
